Results: ChEMBL document CHEMBL4507293 (2021)

Tests used:
[1] = molecular target: cGMP-dependent 3',5'-cyclic phosphodiesterase (Homo sapiens, UniProt O00408); assay: Biochemical assay (PDE2A)
[2] = molecular target: Alpha-1B adrenergic receptor (Homo sapiens) (UniProt P35368); settings: Compound concentration 10.0 uM
[3] = molecular target: BDNF/NT-3 growth factors receptor (Homo sapiens) (UniProt Q16620); settings: Compound concentration 100.0 nM
[4] = tested on: Tyrosine-protein kinase ABL1 (Homo sapiens), P00519 [Q252H]; settings: Compound concentration 100.0 nM
[5] = molecular target: Serine/threonine-protein kinase Nek6 (Homo sapiens) (UniProt Q9HC98); settings: Compound concentration 100.0 nM
[6] = molecular target: Beta-2 adrenergic receptor (Homo sapiens) (UniProt P07550); settings: Compound concentration 10.0 uM
[7] = molecular target: T1, Alpha-2B adrenergic receptor (Homo sapiens) (UniProt P18089); settings: Compound concentration 10.0 uM
T1 sequence (whole entry): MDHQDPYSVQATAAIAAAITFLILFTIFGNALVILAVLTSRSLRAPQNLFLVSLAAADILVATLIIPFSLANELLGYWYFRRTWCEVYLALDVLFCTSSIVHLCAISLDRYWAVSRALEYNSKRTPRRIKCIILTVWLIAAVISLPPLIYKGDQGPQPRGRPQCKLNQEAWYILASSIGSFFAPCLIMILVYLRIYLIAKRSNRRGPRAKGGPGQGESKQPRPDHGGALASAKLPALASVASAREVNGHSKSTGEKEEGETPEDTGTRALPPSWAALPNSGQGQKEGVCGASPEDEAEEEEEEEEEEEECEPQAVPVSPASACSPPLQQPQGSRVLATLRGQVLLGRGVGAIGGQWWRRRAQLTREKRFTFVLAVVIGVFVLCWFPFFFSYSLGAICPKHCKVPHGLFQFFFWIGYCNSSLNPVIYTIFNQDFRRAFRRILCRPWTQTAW

[8] = tested on: Tyrosine-protein kinase ABL1 (Homo sapiens), P00519 [T315I]; settings: Compound concentration 100.0 nM
[9] = molecular target: D(1A) dopamine receptor (Homo sapiens) (UniProt P21728); settings: Compound concentration 10.0 uM
[10] = molecular target: 5-hydroxytryptamine receptor 2B (Homo sapiens) (UniProt P41595); settings: Compound concentration 10.0 uM
[11] = tested on: Tyrosine-protein kinase ABL1 (Homo sapiens), P00519 [E255K]; settings: Compound concentration 100.0 nM
[12] = molecular target: Wee1-like protein kinase 2 (Homo sapiens) (UniProt P0C1S8); settings: Compound concentration 100.0 nM
[13] = molecular target: Histamine H4 receptor (Homo sapiens) (UniProt Q9H3N8); settings: Compound concentration 10.0 uM
[14] = molecular target: Serine/threonine-protein kinase tousled-like 2 (Homo sapiens) (UniProt Q86UE8); settings: Compound concentration 100.0 nM
[15] = molecular target: Ribosomal protein S6 kinase alpha-4 (Homo sapiens) (UniProt O75676); settings: Compound concentration 100.0 nM
[16] = molecular target: Serine/threonine-protein kinase 35 (Homo sapiens) (UniProt Q8TDR2); settings: Compound concentration 100.0 nM
[17] = molecular target: Tyrosine-protein kinase JAK3 (Homo sapiens) (UniProt P52333); settings: Compound concentration 100.0 nM
[18] = molecular target: STE20-like serine/threonine-protein kinase (Homo sapiens) (UniProt Q9H2G2); settings: Compound concentration 100.0 nM
[19] = molecular target: 1-phosphatidylinositol 3-phosphate 5-kinase (Homo sapiens) (UniProt Q9Y2I7); settings: Compound concentration 100.0 nM
[20] = molecular target: Activin receptor type-2A (Homo sapiens) (UniProt P27037); settings: Compound concentration 100.0 nM
[21] = molecular target: Discoidin domain-containing receptor 2 (Homo sapiens) (UniProt Q16832); settings: Compound concentration 100.0 nM
[22] = molecular target: Mitogen-activated protein kinase 13 (Homo sapiens) (UniProt O15264); settings: Compound concentration 100.0 nM
[23] = molecular target: Serine/threonine-protein kinase BRSK2 (Homo sapiens) (UniProt Q8IWQ3); settings: Compound concentration 100.0 nM
[24] = molecular target: T2, Muscarinic acetylcholine receptor M1 (Homo sapiens) (UniProt P11229); settings: Compound concentration 10.0 uM
T2 sequence (whole entry): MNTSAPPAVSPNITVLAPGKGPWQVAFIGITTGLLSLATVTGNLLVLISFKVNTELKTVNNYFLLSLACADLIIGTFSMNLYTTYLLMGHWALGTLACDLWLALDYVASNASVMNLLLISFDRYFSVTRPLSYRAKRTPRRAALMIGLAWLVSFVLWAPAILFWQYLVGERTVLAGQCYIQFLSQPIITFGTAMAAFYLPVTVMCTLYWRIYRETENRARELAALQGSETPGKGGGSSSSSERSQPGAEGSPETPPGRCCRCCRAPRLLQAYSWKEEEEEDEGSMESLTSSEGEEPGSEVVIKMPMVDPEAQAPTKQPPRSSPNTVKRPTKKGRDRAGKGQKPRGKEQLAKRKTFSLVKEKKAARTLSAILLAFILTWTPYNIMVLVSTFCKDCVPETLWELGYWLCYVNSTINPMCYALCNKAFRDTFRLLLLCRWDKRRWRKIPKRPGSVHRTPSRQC

[25] = molecular target: Serine/threonine-protein kinase haspin (Homo sapiens) (UniProt Q8TF76); settings: Compound concentration 100.0 nM
[26] = molecular target: Cyclin-dependent kinase 4 (Homo sapiens) (UniProt P11802); settings: Compound concentration 100.0 nM
[27] = molecular target: RAF proto-oncogene serine/threonine-protein kinase (Homo sapiens) (UniProt P04049); settings: Compound concentration 100.0 nM
[28] = molecular target: Serine/threonine-protein kinase PAK 6 (Homo sapiens) (UniProt Q9NQU5); settings: Compound concentration 100.0 nM
[29] = molecular target: Protein kinase C delta type (Homo sapiens) (UniProt Q05655); settings: Compound concentration 100.0 nM
[30] = molecular target: Serine/threonine-protein kinase Sgk1 (Homo sapiens) (UniProt O00141); settings: Compound concentration 100.0 nM
[31] = molecular target: Tyrosine-protein kinase Fgr (Homo sapiens) (UniProt P09769); settings: Compound concentration 100.0 nM
[32] = tested on: Phosphatidylinositol 4,5-bisphosphate 3-kinase catalytic subunit alpha isoform (Homo sapiens), P42336 [E542K]; settings: Compound concentration 100.0 nM
[33] = molecular target: Serine/threonine-protein kinase Nek5 (Homo sapiens) (UniProt Q6P3R8); settings: Compound concentration 100.0 nM
Chain of Serine/threonine-protein kinase Nek5 (Homo sapiens) (Q6P3R8 whole entry): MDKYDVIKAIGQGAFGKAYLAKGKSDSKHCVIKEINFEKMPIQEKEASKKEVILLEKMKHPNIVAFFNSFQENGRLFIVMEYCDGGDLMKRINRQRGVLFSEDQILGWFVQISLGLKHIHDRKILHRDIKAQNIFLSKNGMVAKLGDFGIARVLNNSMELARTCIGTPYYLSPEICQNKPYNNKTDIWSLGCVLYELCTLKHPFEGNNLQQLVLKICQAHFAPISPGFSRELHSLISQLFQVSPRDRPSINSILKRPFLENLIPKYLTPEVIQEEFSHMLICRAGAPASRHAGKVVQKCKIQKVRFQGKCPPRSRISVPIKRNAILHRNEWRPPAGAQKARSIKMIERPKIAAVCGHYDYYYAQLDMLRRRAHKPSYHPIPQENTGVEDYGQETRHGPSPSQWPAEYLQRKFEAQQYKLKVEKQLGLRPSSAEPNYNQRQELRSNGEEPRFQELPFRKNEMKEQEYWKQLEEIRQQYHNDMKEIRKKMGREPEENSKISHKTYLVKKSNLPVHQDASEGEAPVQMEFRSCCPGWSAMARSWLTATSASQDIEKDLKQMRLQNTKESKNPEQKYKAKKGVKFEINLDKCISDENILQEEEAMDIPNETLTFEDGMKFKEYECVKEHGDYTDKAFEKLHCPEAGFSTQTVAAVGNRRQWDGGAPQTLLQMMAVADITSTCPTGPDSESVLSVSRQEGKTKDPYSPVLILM

Chain of Serine/threonine-protein kinase Nek6 (Homo sapiens) (Q9HC98 whole entry): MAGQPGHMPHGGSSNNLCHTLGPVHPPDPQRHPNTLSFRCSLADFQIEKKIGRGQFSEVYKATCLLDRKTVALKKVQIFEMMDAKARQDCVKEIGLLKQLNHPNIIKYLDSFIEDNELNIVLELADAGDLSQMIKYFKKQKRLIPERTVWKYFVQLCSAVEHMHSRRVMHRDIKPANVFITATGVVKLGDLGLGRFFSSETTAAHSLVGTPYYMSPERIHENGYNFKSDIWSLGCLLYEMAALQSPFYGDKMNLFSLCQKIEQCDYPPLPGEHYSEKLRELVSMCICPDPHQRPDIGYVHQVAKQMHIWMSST
Chain of Histamine H4 receptor (Homo sapiens) (Q9H3N8 whole entry): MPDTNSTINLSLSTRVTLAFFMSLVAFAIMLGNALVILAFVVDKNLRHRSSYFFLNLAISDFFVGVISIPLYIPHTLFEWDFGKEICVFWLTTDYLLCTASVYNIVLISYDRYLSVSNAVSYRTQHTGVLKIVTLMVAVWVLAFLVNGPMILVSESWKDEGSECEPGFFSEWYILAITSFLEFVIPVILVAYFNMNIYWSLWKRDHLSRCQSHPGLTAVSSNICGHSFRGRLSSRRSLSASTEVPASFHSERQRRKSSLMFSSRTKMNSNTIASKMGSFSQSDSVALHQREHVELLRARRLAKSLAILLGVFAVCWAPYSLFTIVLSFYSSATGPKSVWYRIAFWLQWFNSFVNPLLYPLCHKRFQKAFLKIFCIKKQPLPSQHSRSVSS
Chain of Serine/threonine-protein kinase haspin (Homo sapiens) (Q8TF76 whole entry): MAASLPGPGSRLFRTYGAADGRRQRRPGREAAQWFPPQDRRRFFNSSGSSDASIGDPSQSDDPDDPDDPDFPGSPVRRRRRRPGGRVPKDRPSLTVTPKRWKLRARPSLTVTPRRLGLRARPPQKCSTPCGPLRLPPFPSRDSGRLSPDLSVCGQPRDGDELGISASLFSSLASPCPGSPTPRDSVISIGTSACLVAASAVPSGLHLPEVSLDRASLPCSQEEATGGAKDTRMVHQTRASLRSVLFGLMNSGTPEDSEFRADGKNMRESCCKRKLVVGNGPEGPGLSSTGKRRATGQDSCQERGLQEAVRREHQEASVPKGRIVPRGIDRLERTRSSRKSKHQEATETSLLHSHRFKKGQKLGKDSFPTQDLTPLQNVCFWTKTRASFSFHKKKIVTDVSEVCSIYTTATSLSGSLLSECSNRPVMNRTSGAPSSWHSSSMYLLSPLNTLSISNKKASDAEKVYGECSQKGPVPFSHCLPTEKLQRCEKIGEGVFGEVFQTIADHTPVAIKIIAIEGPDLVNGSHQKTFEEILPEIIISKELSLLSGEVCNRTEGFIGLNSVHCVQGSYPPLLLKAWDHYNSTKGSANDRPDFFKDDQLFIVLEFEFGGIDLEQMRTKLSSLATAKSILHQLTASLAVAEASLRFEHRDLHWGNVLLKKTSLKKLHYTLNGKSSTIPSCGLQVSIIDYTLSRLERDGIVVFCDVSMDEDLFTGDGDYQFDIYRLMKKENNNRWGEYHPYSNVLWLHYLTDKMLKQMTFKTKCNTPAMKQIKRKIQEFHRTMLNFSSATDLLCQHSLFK
Chain of Serine/threonine-protein kinase 35 (Homo sapiens) (Q8TDR2 whole entry): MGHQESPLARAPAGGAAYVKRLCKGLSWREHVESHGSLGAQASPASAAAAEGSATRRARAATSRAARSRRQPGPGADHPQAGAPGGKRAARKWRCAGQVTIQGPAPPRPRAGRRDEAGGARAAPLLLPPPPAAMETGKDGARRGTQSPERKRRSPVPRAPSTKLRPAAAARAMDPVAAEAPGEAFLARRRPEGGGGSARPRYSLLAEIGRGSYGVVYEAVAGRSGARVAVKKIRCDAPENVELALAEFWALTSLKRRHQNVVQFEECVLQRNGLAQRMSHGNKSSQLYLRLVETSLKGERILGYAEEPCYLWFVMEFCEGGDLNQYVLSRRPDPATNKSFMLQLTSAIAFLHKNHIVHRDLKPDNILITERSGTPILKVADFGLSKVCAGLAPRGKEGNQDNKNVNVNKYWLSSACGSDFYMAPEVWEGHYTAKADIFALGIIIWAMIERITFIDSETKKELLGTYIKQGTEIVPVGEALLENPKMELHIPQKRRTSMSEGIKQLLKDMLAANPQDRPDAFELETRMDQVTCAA
Chain of Serine/threonine-protein kinase Sgk1 (Homo sapiens) (O00141 whole entry): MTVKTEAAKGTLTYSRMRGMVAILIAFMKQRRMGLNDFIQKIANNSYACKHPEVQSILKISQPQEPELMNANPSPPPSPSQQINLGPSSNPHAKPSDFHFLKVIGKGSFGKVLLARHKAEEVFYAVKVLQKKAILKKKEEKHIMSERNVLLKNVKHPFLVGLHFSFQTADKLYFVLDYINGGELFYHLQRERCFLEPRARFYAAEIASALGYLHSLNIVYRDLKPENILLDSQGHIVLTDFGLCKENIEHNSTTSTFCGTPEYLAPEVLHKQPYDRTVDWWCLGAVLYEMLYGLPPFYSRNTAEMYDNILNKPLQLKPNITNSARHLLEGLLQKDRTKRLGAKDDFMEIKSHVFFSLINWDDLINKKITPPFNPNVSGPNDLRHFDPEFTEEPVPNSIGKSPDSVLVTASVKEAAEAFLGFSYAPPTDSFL
Chain of Alpha-1B adrenergic receptor (Homo sapiens) (P35368 whole entry): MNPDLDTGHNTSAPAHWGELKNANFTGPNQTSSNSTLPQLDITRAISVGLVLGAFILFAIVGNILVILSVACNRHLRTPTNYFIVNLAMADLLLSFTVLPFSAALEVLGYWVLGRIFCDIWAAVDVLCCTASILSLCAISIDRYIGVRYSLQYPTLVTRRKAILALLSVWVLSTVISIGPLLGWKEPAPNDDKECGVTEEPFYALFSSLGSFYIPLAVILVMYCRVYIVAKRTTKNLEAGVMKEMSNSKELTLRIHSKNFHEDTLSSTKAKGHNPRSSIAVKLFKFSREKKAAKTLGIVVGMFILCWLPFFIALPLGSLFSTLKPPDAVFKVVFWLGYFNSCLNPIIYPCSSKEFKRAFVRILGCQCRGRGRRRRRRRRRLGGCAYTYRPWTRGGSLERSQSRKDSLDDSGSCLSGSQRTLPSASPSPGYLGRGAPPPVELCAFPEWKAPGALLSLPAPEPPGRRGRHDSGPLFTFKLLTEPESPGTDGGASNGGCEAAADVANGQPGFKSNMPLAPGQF
Chain of Beta-2 adrenergic receptor (Homo sapiens) (P07550 whole entry, looked up): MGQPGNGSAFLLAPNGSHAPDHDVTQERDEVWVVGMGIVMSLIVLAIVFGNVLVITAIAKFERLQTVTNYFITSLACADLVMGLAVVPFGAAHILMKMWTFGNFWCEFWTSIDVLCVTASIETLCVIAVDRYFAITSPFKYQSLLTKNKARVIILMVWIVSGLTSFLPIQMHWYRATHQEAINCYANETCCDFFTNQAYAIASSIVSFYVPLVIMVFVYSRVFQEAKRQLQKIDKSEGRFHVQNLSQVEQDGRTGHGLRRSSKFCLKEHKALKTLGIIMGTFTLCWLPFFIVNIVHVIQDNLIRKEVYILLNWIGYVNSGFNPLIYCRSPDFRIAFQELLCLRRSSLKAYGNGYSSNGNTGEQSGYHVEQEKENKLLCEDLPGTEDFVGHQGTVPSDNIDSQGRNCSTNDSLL
Chain of Protein kinase C delta type (Homo sapiens) (Q05655 whole entry, looked up): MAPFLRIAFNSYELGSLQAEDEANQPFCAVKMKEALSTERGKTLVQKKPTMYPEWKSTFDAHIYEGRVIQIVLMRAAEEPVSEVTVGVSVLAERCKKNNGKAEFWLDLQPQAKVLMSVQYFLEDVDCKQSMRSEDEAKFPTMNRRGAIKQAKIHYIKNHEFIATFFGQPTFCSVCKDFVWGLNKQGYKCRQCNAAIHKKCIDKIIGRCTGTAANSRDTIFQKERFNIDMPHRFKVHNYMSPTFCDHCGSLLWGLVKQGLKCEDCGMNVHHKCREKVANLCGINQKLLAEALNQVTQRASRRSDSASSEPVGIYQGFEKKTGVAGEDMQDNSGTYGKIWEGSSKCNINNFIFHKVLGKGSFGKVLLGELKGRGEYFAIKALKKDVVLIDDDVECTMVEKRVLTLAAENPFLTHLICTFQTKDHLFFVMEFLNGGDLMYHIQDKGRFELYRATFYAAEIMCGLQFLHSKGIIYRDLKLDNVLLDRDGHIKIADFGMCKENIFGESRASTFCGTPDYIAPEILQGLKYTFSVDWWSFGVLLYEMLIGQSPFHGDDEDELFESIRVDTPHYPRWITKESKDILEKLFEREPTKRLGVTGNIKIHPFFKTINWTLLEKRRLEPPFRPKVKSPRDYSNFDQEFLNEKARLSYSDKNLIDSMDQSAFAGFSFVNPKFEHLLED

COCCOc1nc(-c2ccc(Cl)nc2)nc2c1CN(C(=O)c1ncn3ccccc13)CC2 [THPP-1]
Ki [1]: 1.2 µM (not active)
inhibition [2]: 10.8%
residual activity [3]: 100%
residual activity [4]: 81%
residual activity [5]: 100%
inhibition [6]: -0.65%
inhibition [7]: -2.32%
residual activity [8]: 75%
inhibition [9]: -8.34%
inhibition [10]: 3.25%
residual activity [11]: 100%
residual activity [12]: 100%
inhibition [13]: -6.39%
residual activity [14]: 100%
residual activity [15]: 100%
residual activity [16]: 100%
residual activity [17]: 93%
residual activity [18]: 100%
residual activity [19]: 90%
residual activity [20]: 98%
residual activity [21]: 100%
residual activity [22]: 100%
residual activity [23]: 93%
inhibition [24]: -4.03%
residual activity [25]: 100%
residual activity [26]: 100%
residual activity [27]: 97%
residual activity [28]: 100%
residual activity [29]: 100%
residual activity [30]: 91%
residual activity [31]: 100%
residual activity [32]: 87%
residual activity [33]: 100%

CC(C)CC(=O)N1CCc2nc(-c3ccc(Br)cc3)nc(N(C)Cc3ccccc3)c2C1 [THPP-1-NC]
Ki [1]: > 100 µM (not active)
inhibition [2]: 17.5%
residual activity [3]: 100%
residual activity [4]: 88%
residual activity [5]: 100%
inhibition [6]: 5.63%
inhibition [7]: 29%
residual activity [8]: 100%
inhibition [9]: 18.5%
inhibition [10]: 7.85%
residual activity [11]: 100%
residual activity [12]: 100%
inhibition [13]: -7.78%
residual activity [14]: 100%
residual activity [15]: 100%
residual activity [16]: 96%
residual activity [17]: 98%
residual activity [18]: 100%
residual activity [19]: 91%
residual activity [20]: 97%
residual activity [21]: 97%
residual activity [22]: 100%
residual activity [23]: 94%
inhibition [24]: 4.18%
residual activity [25]: 100%
residual activity [26]: 93%
residual activity [27]: 100%
residual activity [28]: 100%
residual activity [29]: 100%
residual activity [30]: 99%
residual activity [31]: 99%
residual activity [32]: 100%
residual activity [33]: 100%
